The text below walks through data of patent US20210087525A1, “COST EFFECTIVE CULTURE MEDIA AND PROTOCOL FOR HUMAN INDUCED PLURIPOTENT STEM CELLS” (NORTHWESTERN UNIVERSITY, priority 2019, published 2021).

Data set [1] has as its system hiPSC. Kind of data set: long-term 5-passage, 4-day hiPSC growth assay. The data set is classed as cell-based, human. The settings on record: FIG. 5D-L. From the text: FIG. 5A-P. Optimization of B8 Medium Constituents with a Long-Term Growth Assay. Results are normalized to initial medium component concentrations shown with a dark gray bar, optimizations were completed using long-term 5-passage, 4-day growth assay. Comparison of the effect of (A) recombinant human insulin concentration on relative growth (n=10). (B) L-ascorbic acid 2-phosphate (n=10). (C) Recombinant transferrin (n=10). (D) Sodium selenite (n=5). (E) In-house made FGF2-G3 (n=6). (G) NODAL (n=5). (H) Activin A (n=5). (I) In-house made TGFb3 after 9 passages compared to commercial TGFb1 (n=9). (J) Addition of NRG1 to 40 ng ml−1 FGF2-G3 (n>5). (K) Final B8 formula. n=full experimental replicates, unpaired Student's T-test, *P≤0.05, **P≤0.01, ***P≤0.005, ****P≤0.0001, n.s.=not significant.
Our initial short-term experiments provided preliminary optimizations, yet we were aware from previous experiments that some variables, such as the elimination of TGFβ1, had minimal effects short-term and would only have detectable negative effects in long-term experiments. Thus the effectiveness of a long-term assay was evaluated with the following assay protocol: […]

The conditions of data set [2]: cited from earlier work.
Data set [3] relates to phospho-ERK. Kind of data set: stimulation of phospho-ERK in FGF2-starved hiPSC by media stored at 37° C. (Western blot). The data set is classed as cell-based, human. The protocol:
FIG. 7A-E. Qualification of B8 as Suitable for hiPSC Generation and Culture. […] (B) Expression of pluripotent markers in a variety of B8-derived hiPSC lines. (C) Example G-banding karyotype analysis of four hiPSC lines derived in B8 from blood. (D) hiPSC growth at low seeding densities in B8 compared to E8 (n=8). (E) Assessment of stimulation of phospho-ERK after media had been stored at 37° C. for 2 or 7 days, comparing in-house generated FGF2-G3 to a commercial FGF2 (Peprotech). hiPSC were starved of FGF2 for 24 h then treated with the indicated media for 1 h before collection for Western blot. Total ERK was used as a loading control.
Stock lysis buffer was prepared as 150 mM NaCl, 20 mM Tris pH 7.5, 1 mM EDTA, 1 mM EGTA, and 1% Triton X-100 and stored at 4° C. Fresh complete lysis buffer was prepared with final concentration of 1× Protease Inhibitor (Roche, 5892791001), 1× Phosphatase Inhibitor Cocktail 2 (P5726, Sigma), 1× Phosphatase Inhibitor Cocktail 3 (Sigma, P0044), 2 mM PMSF (Sigma, P7626), and 1% SDS Solution (Fisher Scientific, BP2436200). hiPSC were starved using B8 without FGF2 for 24 hours, then treated with media containing the corresponding FGF2 for 1 h. Media was then removed, and cells were washed once with DPBS, harvested with 0.5 mM EDTA in DPBS, and transferred into tubes. Samples were pelleted by centrifugation at 500×g for 3 minutes and the supernatant was discarded. The pellet was resuspend in 150 μl complete lysis buffer and incubated on ice for 30 min. Clear lysates were collected by centrifugation at 10,000×g for 10 min at 4° C. The protein concentration was measured with Qubit Protein Assay Kit (Invitrogen, Q33211) and Qubit 4 fluorometer. Lysates was stored in −80° C. before use. 10 μg of sample was prepared with NuPAGE™ LDS Sample Buffer (Invitrogen, B0007) and NuPAGE™ Reducing Agent (Invitrogen, B0009) according to the manufacturer's instructions and run on NuPAGE™ 10% Bis-Tris Gel (Invitrogen, NP0302BOX) and Mini Gel Tank system (Invitrogen, A25977) with Bolt MES SDS Running Buffer (Invitrogen, B000202) at 100 V for 1 h. […]
(Immunoblotting shows a protein as a band on a membrane.)

Data set [4] has as its system hiPSC. Kind of data set: weekend-free media change / passaging schedule growth. The settings on record: various doses, FIG. 8E. The data set is classed as cell-based, human. The protocol:
FIG. 8A-H. Optimization of Weekend-Free Passaging Schedule that is Still Compatible with Monolayer Differentiation. (A) Establishment of an optimal 4-day media change schedule. (B) 7 day passage with media change schedule. (C) 7 day passage only schedule. (D) Comparison of growth when using two 7-day weekend-free passaging schedules with or without addition of 0.5 mg ml−1 albumin (n=2). (E) Comparison the addition of varying levels of albumin (mg ml−1) to a 7-day passage and media change schedule (n=4). (F) Cardiac differentiation efficiency when using 7-day passage and media change schedule (n=5). (G) Endothelial differentiation efficiency when using 7-day passage and media change schedule (n=6). (H) […]
With the understanding that B8 supports hiPSC growth across a variety of sub-optimal conditions (FIG. 7D), we established the suitability of this formula to skip days of media change. […] With the knowledge of the influence of various media change-skipping timelines, we devised a 7-day schedule consisting of passaging cells every 3.5 days that would allow for the skipping of media changes on the weekends, a major caveat of current hiPSC culture protocols (FIGS. 8B and 8C). […]

Data set [5] concerns hiPSC line 19-3. Kind of data set: short-term 6-day hiPSC growth assay (media variable optimization). The settings on record: FIG. 3H. The data set is classed as cell-based, human. From the text:
FIG. 2A-F. Optimization of Basic Human Pluripotent Stem Cell Medium Constituents with a Short-Term Growth Assay. Results are normalized to initial medium component concentrations shown with a dark gray bar, optimizations were completed using short-term 6-day growth assay. […] (A) Comparison of the effect of recombinant human IGF1 LR3 (n=3) and recombinant human insulin (n=18-22) concentrations on relative growth. (B) L-ascorbic acid 2-phosphate (n=19-27). (C) Transferrin (n=2-20). (D) Sodium selenite (n=3-20). (E) FGF2-K128N (n=3-12). (F) TGFb1 (n=20-25). n=full experimental replicates, unpaired Student's T-test, *P≤0.05, **P≤0.01, ***P≤0.005, ****P≤0.0001, n.s.=not significant.
FIG. 3A-H. Optimization of Additional Human Pluripotent Stem Cell Medium Constituents in a Short-Term Assay. E8 medium component concentrations are shown with a dark gray bar, optimizations were completed using a simple 6-day growth assay. […] (A) Comparison of the suitability of recombinant transferrin (10 μg ml−1) to support clonal growth with and without ROCK1/2 inhibition using Y27632 (10 μM) during the first 24 h after passage (n=3). (B) Comparison of two common ROCK1/2 inhibitors only during first 24 h after passage on relative growth (n>5). (C) Comparison of the effect of the addition of non-essential amino acids (NEAA) and chemically defined lipids (n=5) on relative growth. (D) Fatty acid-free albumin (n=4). (E) Sodium bicarbonate (n=5). (F) pH (n=9). (G) Osmolarity (n=8). (H) FGF2-G3 (n=3). n=full experimental replicates, unpaired Student's T-test, *P≤0.05, **P≤0.01, ***P≤0.005, ****P≤0.0001, n.s.=not significant.
The hiPSC line 19-3 was dissociated with TrypLE (Gibco™, 12604-013) for 3 min at 37° C. and cells were resuspended in DMEM/F12, transferred to a 15 ml conical tube (Falcon) and centrifuged at 200×g for 3 min (Sorvall ST40). The pellet was resuspended in DMEM/F12, diluted to 1×10^5 cells per ml and 10,000 cells were plated per well in Matrigel® (1:800)-coated 12-well plates (Greiner) in the medium to be tested along with 2 μM thiazovivin for the first 24 h. Media were changed daily and cells were grown for 6 days. This lower than normal seeding density was used to allow the discovery of factors only detectable under more extreme conditions and therefore provide data on the robustness to the formulation.

Turning to “TGFβ3: 112 amino acid TGFβ3 (SEQ ID NO: 16) made in E. coli as thioredoxin fusion protein”, in data set [1], the “concentration confirmed / usable / required in long-term assay” value came out at 0.1 ng/mL. The “potency relative to TGFβ1” value in data set [2] (Huang et al., 2014) is recorded as “more potent than TGFβ1”.

Regarding “commercial FGF2: a commercial FGF2 (Peprotech) [reference compound]”, the “pERK stimulation after storage of media at 37° C.” value in data set [3] (2 days at 37° C.) was “not capable of stimulating pERK”.

With “TGFβ1m: TGFβ1 with C77S point mutation, unable to form dimers, produced in E. coli”, in data set [2] (monomeric C77S protein, predicted (Kim et al., 2015)), the “potency relative to TGFβ1 (fold less potent)” value was around 20 fold.

As to heparin, the “additive effect in B8” value in data set [4] is “do not have an additive effect”. Further, in data set [3] (FIG. 7E), the “effect of component on stability of FGF2-G3” value is on record as “improved the stability of FGF2-G3”.

B1: FGF2-G3: thermostable FGF2 with nine point mutations, made in-house in E. coli (SEQ ID NO: 15) (protein)
chain: AAGSITTLPALPEDGGSGAFPPGHFKDPKLLYCKNGGFFLRIHPDGRVDGTRDKSDPFIKLQLQAEERGVVSIKGVCANRYLAMKEDGRLYAIKNVTDECFFFERLEENNYNTYRSRKYPSWYVALKRTGQYKLGSKTGPGQKAILFLPMSAKS
With B1, the “concentration confirmed / usable / required in long-term assay” value in data set [1] came out at 40 ng/mL. Besides, the “concentrations showing a similar effect on growth rate” value in data set [5] (FGF2-G3 compared with FGF2-K128N) was 5 ng/mL. Further, the “relative potency on growth rate” value in data set [5] is listed as “more potent than FGF2-K128N”. In data set [3] (7 days at 37° C.), the “stability (pERK stimulation) after storage of media at 37° C.” value is listed as “stable”.
